Measured values published in US20220370447A1, “METHOD OF TREATING HBV INFECTION USING A CORE PROTEIN ALLOSTERIC MODULATOR” (Hoffmann-La Roche Inc., priority 2019, published 2022).

Experiments:
Assay type in all cases: in vivo, human
HBV [1] = assay: Completed clinical studies (YP39364 Part 1 and 2, YP39406, YP40218), four-week treatment, PD markers; conditions: four-week treatment with Compound (I)
Source text: (§1) Three clinical studies (Part 1 and 2 of YP39364 (NCT02952924), YP39406 (NCT03570658), and YP40218 (NCT03717064)) have been completed to characterize the safety, tolerability, pharmacokinetics (PK) and pharmacodynamics (PD) of Compound (I) in both healthy volunteers and CHB patients. […] Thus, there is an unmet medical need for a novel method of treatment with Compound (I) that could achieve a higher rate of functional cure with a finite treatment duration and excellent tolerability.

[2] = Safety and tolerability in chronic hepatitis B patients
Source text: as §1
In this invention, methods of Compound (I) monotherapy and Compound (I) in combination with other anti-HBV agents for 12-144 weeks were developed. […] Comparing with current NUC treatment, the current finite treatment methods of this invention minimize the risk of drug resistance and decrease adverse effects of NUC treatment (e.g. the risk of renal injury, bone density loss and creatine kinase elevation, etc).

HBV [3] = assay: Treatment methods of the invention, Compound (I) monotherapy or combination for 12-144 weeks in patients infected with HBV
Source text: Study population: patients infected with HBV (Terrault NA, Lok ASF, McMahon BJ, et al. Update on prevention, diagnosis, and treatment of chronic hepatitis B: AASLD 2018 hepatitis B guidance. Hepatology. 2018; 67:1560-1599.European Association for the Study of the Liver. EASL 2017 Clinical Practice Guidelines on the management of hepatitis B virus infection. J Hepatol. 2017; 67:370-398.).
General Methods: To explore the effects of Compound (I) on HBsAg loss or decline, Compound (I) is administered following the dose regimen listed in Table 1. The primary measure is the quantitative HBsAg decline or HBsAg loss (<0.05 IU/mL, measured by Elecsys® HBsAg II (Roche)®) at 24 weeks post treatment.

[4] = immune tolerant patients (HBV DNA levels elevated, ALT levels normal)

Q: What does the source list for CCOC(=O)C1=C(CN2CCN3C(=O)N(CC(C)(C)C(=O)O)C[C@@H]3C2)NC(c2nccs2)=N[C@H]1c1cccc(F)c1C [Compound (I)]?
A: HBV DNA (short-term PD marker) (HBV [1]): robust decline; HBV RNA (short-term PD marker) (HBV [1]): robust decline; HBsAg decline (HBV [1]): significant decline of HBsAg has not been observed; Safety and tolerability [2]: safe and well tolerated; hepatitis B surface antigen (HBsAg) decline or loss (HBV [3]; Compound (I) in combination with other anti-HBV agents for 12-144 weeks): significant hepatitis B surface antigen (HBsAg) decline or loss; HBV DNA decline (HBV [3]; [4]): robust HBV DNA and HBV RNA decline; HBV RNA decline (HBV [3]; [4]): robust HBV DNA and HBV RNA decline
